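The concentration for 50% growth inhibition is given as GI50. TGI marks complete inhibition of growth.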
Experiments:
Test in all cases: NCI anticancer screen, dose series, 384-well format
786-0 renal = tested on: 786-0 renal
A498 renal = tested on: A498 renal
A549 NSCLC = tested on: A549 NSCLC
ACHN renal = tested on: ACHN renal
BT-549 breast = tested on: BT-549 breast
CAKI-1 renal = tested on: CAKI-1 renal
CCRF-CEM leukemia = tested on: CCRF-CEM leukemia
COLO 205 colon = tested on: COLO 205 colon
DU-145 prostate = tested on: DU-145 prostate
EKVX NSCLC = tested on: EKVX NSCLC
HCC-2998 colon = tested on: HCC-2998 colon
HCT-116 colon = tested on: HCT-116 colon
HCT-15 colon = tested on: HCT-15 colon
HL-60(TB) leukemia = tested on: HL-60(TB) leukemia
HOP-62 NSCLC = tested on: HOP-62 NSCLC
HOP-92 NSCLC = tested on: HOP-92 NSCLC
HS 578T breast = tested on: HS 578T breast
HT29 colon = tested on: HT29 colon
IGROV1 ovarian = tested on: IGROV1 ovarian
K-562 leukemia = tested on: K-562 leukemia
KM12 colon = tested on: KM12 colon
LOX IMVI melanoma = tested on: LOX IMVI melanoma
M14 melanoma = tested on: M14 melanoma
MALME-3M melanoma = tested on: MALME-3M melanoma
MCF7 breast = tested on: MCF7 breast
MDA-MB-231 breast = tested on: MDA-MB-231 breast
MDA-MB-435 melanoma = tested on: MDA-MB-435 melanoma
MDA-MB-468 breast = tested on: MDA-MB-468 breast
MOLT-4 leukemia = tested on: MOLT-4 leukemia
NCI-H226 lung = tested on: NCI-H226 lung
NCI-H23 lung = tested on: NCI-H23 lung
NCI-H322M lung = tested on: NCI-H322M lung
NCI-H460 NSCLC = tested on: NCI-H460 NSCLC
NCI-H522 lung = tested on: NCI-H522 lung
NCI/ADR-RES ovarian = tested on: NCI/ADR-RES ovarian
OVCAR-3 ovarian = tested on: OVCAR-3 ovarian
OVCAR-4 ovarian = tested on: OVCAR-4 ovarian
OVCAR-5 ovarian = tested on: OVCAR-5 ovarian
PC-3 prostate = tested on: PC-3 prostate
RPMI-8226 leukemia = tested on: RPMI-8226 leukemia
RXF 393 renal = tested on: RXF 393 renal
SF-268 CNS = tested on: SF-268 CNS
SF-295 CNS = tested on: SF-295 CNS
SF-539 CNS = tested on: SF-539 CNS
SK-MEL-2 melanoma = tested on: SK-MEL-2 melanoma
SK-MEL-28 melanoma = tested on: SK-MEL-28 melanoma
SK-MEL-5 melanoma = tested on: SK-MEL-5 melanoma
SK-OV-3 ovarian = tested on: SK-OV-3 ovarian
SN12C renal = tested on: SN12C renal
SNB-19 CNS = tested on: SNB-19 CNS
SNB-75 CNS = tested on: SNB-75 CNS
SR leukemia = tested on: SR leukemia
SW-620 colon = tested on: SW-620 colon
T-47D breast = tested on: T-47D breast
TK-10 renal = tested on: TK-10 renal
U251 glioblastoma = tested on: U251 glioblastoma
UACC-257 melanoma = tested on: UACC-257 melanoma
UACC-62 melanoma = tested on: UACC-62 melanoma

Which results are given for `CN1CC[C@]2(c3cccc(O)c3)CC(=O)/C(=C/c3ccccc3)[C@H]1C2`?
GI50 ([…]-0 renal): 13.6 µM; TGI (786-0 renal): 26.7 µM; GI50 (A498 renal): 16.5 µM; TGI (A498 renal): 30.3 µM; GI50 (A549 NSCLC): 4.95 µM; TGI (A549 NSCLC): 16.5 µM; GI50 (ACHN renal): 12.8 µM; TGI (ACHN renal): 25.7 µM; GI50 (BT-549 breast): 5.7 µM; TGI (BT-549 breast): 17.7 µM; GI50 (CAKI-1 renal): 8.77 µM; TGI (CAKI-1 renal): 21.1 µM; GI50 (CCRF-CEM leukemia): 11.8 µM; TGI (CCRF-CEM leukemia): 24.3 µM; GI50 (COLO 205 colon): 15.4 µM; TGI (COLO 205 colon): 28.9 µM; GI50 (DU-145 prostate): 14.2 µM; TGI (DU-145 prostate): 28.1 µM; GI50 (EKVX NSCLC): 6.2 µM; TGI (EKVX NSCLC): 20.3 µM; GI50 (HCC-2998 colon): 1.77 µM; TGI (HCC-2998 colon): 14.7 µM; GI50 (HCT-116 colon): 8.49 µM; TGI (HCT-116 colon): 20.9 µM; GI50 (HCT-15 colon): 3.21 µM; TGI (HCT-15 colon): 13.1 µM; GI50 (HL-60(TB) leukemia): 2.06 µM; TGI (HL-60(TB) leukemia): 4.13 µM; GI50 (HOP-62 NSCLC): 17 µM; TGI (HOP-62 NSCLC): 31.3 µM; GI50 (HOP-92 NSCLC): 11.6 µM; TGI (HOP-92 NSCLC): 24 µM; GI50 (HS 578T breast): 3.7 µM; TGI (HS 578T breast): 14.5 µM; GI50 (HT29 colon): 13.4 µM; TGI (HT29 colon): 26.8 µM; GI50 (IGROV1 ovarian): 14.5 µM; TGI (IGROV1 ovarian): 28 µM; GI50 (K-562 leukemia): 4.3 µM; TGI (K-562 leukemia): 18 µM; GI50 (KM12 colon): 4.77 µM; TGI (KM12 colon): 16.4 µM; GI50 (LOX IMVI melanoma): 12 µM; TGI (LOX IMVI melanoma): 24.5 µM; GI50 (M14 melanoma): 12.7 µM; TGI (M14 melanoma): 25.5 µM; GI50 (MALME-3M melanoma): 6.65 µM; TGI (MALME-3M melanoma): 18.9 µM; GI50 (MCF7 breast): 11.5 µM; TGI (MCF7 breast): 23.9 µM; GI50 (MDA-MB-231 breast): 9.42 µM; TGI (MDA-MB-231 breast): 22.1 µM; GI50 (MDA-MB-435 melanoma): 4.41 µM; TGI (MDA-MB-435 melanoma): 16.2 µM; GI50 (MDA-MB-468 breast): 13.4 µM; TGI (MDA-MB-468 breast): 26.4 µM; GI50 (MOLT-4 leukemia): 6.77 µM; TGI (MOLT-4 leukemia): 19.8 µM; GI50 (NCI-H226 lung): 18.1 µM; TGI (NCI-H226 lung): 32.1 µM; GI50 (NCI-H23 lung): 12 µM; TGI (NCI-H23 lung): 26.4 µM; GI50 (NCI-H322M lung): 5.86 µM; TGI (NCI-H322M lung): 18.6 µM; GI50 (NCI-H460 NSCLC): 4.05 µM; TGI (NCI-H460 NSCLC): 15.2 µM; GI50 (NCI-H522 lung): 0.414 µM; TGI (NCI-H522 lung): 2.38 µM; GI50 (NCI/ADR-RES ovarian): 11.1 µM; TGI (NCI/ADR-RES ovarian): 27.8 µM; GI50 (OVCAR-3 ovarian): 4.8 µM; TGI (OVCAR-3 ovarian): 15.7 µM; GI50 (OVCAR-4 ovarian): 14.8 µM; TGI (OVCAR-4 ovarian): 28.2 µM; GI50 (OVCAR-5 ovarian): 17.6 µM; TGI (OVCAR-5 ovarian): 31.8 µM; GI50 (PC-3 prostate): 10 µM; TGI (PC-3 prostate): 21.9 µM; GI50 (RPMI-8226 leukemia): 1.86 µM; TGI (RPMI-8226 leukemia): 3.77 µM; GI50 (RXF 393 renal): 3.86 µM; TGI (RXF 393 renal): 14.5 µM; GI50 (SF-268 CNS): 11.9 µM; TGI (SF-268 CNS): 24.3 µM; GI50 (SF-295 CNS): 16.2 µM; TGI (SF-295 CNS): 30.1 µM; GI50 (SF-539 CNS): 6.7 µM; TGI (SF-539 CNS): 19.6 µM; GI50 (SK-MEL-2 melanoma): 21.1 µM; TGI (SK-MEL-2 melanoma): 35.6 µM; GI50 (SK-MEL-28 melanoma): 10.7 µM; TGI (SK-MEL-28 melanoma): 22.8 µM; GI50 (SK-MEL-5 melanoma): 4.91 µM; TGI (SK-MEL-5 melanoma): 15.7 µM; GI50 (SK-OV-3 ovarian): 5.01 µM; TGI (SK-OV-3 ovarian): 16.6 µM; GI50 (SN12C renal): 13.6 µM; TGI (SN12C renal): 26.9 µM; GI50 (SNB-19 CNS): 15 µM; TGI (SNB-19 CNS): 29 µM; GI50 (SNB-75 CNS): 6.43 µM; TGI (SNB-75 CNS): 18.8 µM; GI50 (SR leukemia): 1.16 µM; TGI (SR leukemia): 3.15 µM; GI50 (SW-620 colon): 5.35 µM; TGI (SW-620 colon): 16.5 µM; GI50 (T-47D breast): 11.8 µM; TGI (T-47D breast): 24.5 µM; GI50 (TK-10 renal): 14.9 µM; TGI (TK-10 renal): 28.3 µM; GI50 (U251 glioblastoma): 4.11 µM; TGI (U251 glioblastoma): 15.5 µM; GI50 (UACC-257 melanoma): 3.9 µM; TGI (UACC-257 melanoma): 13.7 µM; GI50 (UACC-62 melanoma): 10.5 µM; TGI (UACC-62 melanoma): 22.5 µM

Reference: PubChem BioAssay (NCI)
